# Test results: US12144351B2, “Herbicidal mixtures comprising L-glufosinate and their use in corn cultures” (priority 2017, dated 2024)
# How the values were obtained:
# Assay in all cases: Post emergence treatment, greenhouse pot test, herbicidal activity
# Format in all cases: in vivo
# Settings in all cases: scale 0 to 100
# AVEFA (Avena fatua) = system: AVEFA (Avena fatua)
# Experimental: (§1) The analysis of synergism or antagonism between the mixtures or compositions was determined using Colby's equation.
# (§2) The culture containers used were plastic flowerpots containing loamy sand with approximately 3.0% of humus as the substrate. The seeds of the test plants were sown separately for each species and/or resistant biotype. […] The containers were irrigated gently to promote germination and growth and subsequently covered with transparent plastic hoods until the plants had rooted. This cover caused uniform germination of the test plants, unless this had been impaired by the active ingredients. […] For this purpose, the test plants were either sown directly and grown in the same containers, or they were first grown separately as seedlings and transplanted into the test containers a few days prior to treatment. Depending on the species, the plants were kept at 10-25° C. or 20-35° C., respectively. The test period extended to 20 days after treatment. During this time, the plants were tended, and their response to the individual treatments was evaluated. The evaluation was carried out by using a scale from 0 to 100. 100 means no emergence of the plants or complete destruction of at least the above-ground parts, and 0 means no damage, or normal course of growth. Data shown are the mean of two replications.
# SETVI (Setaria viridis) = system: SETVI (Setaria viridis)
# Experimental: as §1, §2
# KCHSC (Kochia scoparia) = system: KCHSC (Kochia scoparia)
# Experimental: as §1, §2
# [1] = system: ABUTH (Abutilon theophrasti)
# Experimental: as §1, §2
# [2] = system: COMBE (Commelina benghalensis)
# Experimental: as §1, §2
# [3] = system: CHEAL (Chenopodium album)
# Experimental: as §1, §2
# [4] = system: ECHCG (Echinochloa crus-galli)
# Experimental: as §1, §2
# [5] = 2,4-D as dimethylammonium salt 70 g ai/ha
# [6] = 2,4-D as dimethylammonium salt 140 g ai/ha
molecule,measurement,setting,value
"CNC.O=C(O)COc1ccc(Cl)cc1Cl [2,4-D as dimethylammonium salt, 2,4-D dimethylammonium salt]","Herbicidal activity against AVEFA, Found",AVEFA (Avena fatua); [5],0
same,"Herbicidal activity against AVEFA, Found",AVEFA (Avena fatua); [6],0
same,"Herbicidal activity against SETVI, Found",SETVI (Setaria viridis); [5],0
same,"Herbicidal activity against SETVI, Found",SETVI (Setaria viridis); [6],0
COC[C@H](C)N(C(=O)CCl)c1c(C)csc1C [Dimethenamid-P],"Herbicidal activity against KCHSC, Found",KCHSC (Kochia scoparia); Dimethenamid-P 500 g ai/ha,0
same,"Herbicidal activity against KCHSC, Found",KCHSC (Kochia scoparia); Dimethenamid-P 1000 g ai/ha,70
"CP(=O)(O)CC[C@H](N)C(=O)O [L-Glufosinate, (2S)-2-amino-4-[hydroxy(methyl)phosphinoyl]butyric acid]","Herbicidal activity against ABUTH, Found",[1]; L-Glufosinate 75 g ai/ha,0
same,"Herbicidal activity against ABUTH, Found",[1]; L-Glufosinate 150 g ai/ha,55
same,"Herbicidal activity against ABUTH, Found",[1]; L-Glufosinate 200 g ai/ha,65
same,"Herbicidal activity against AVEFA, Found",AVEFA (Avena fatua); L-Glufosinate 75 g ai/ha,0
same,"Herbicidal activity against AVEFA, Found",AVEFA (Avena fatua); L-Glufosinate 150 g ai/ha,0
same,"Herbicidal activity against COMBE, Found",[2]; L-Glufosinate 100 g ai/ha,0
"CCOCCN(C(=O)CCl)C(=C(C)C)c1ccccc1 [Pethoxamid, pethoxamid]","Herbicidal activity against ABUTH, Found",[1]; Pethoxamid 50 g ai/ha,0
same,"Herbicidal activity against ABUTH, Found",[1]; Pethoxamid 100 g ai/ha,0
same,"Herbicidal activity against AVEFA, Found",AVEFA (Avena fatua); Pethoxamid 50 g ai/ha,0
same,"Herbicidal activity against AVEFA, Found",AVEFA (Avena fatua); Pethoxamid 100 g ai/ha,0
"CCc1cccc(C)c1N(C(=O)CCl)[C@@H](C)COC [S-Metolachlor, S-metolachlor]","Herbicidal activity against CHEAL, Found",[3]; S-Metolachlor 500 g ai/ha,20
same,"Herbicidal activity against CHEAL, Found",[3]; S-Metolachlor 1000 g ai/ha,75
"C#CCN1C(=O)C(F)(F)Oc2cc(F)c(-n3c(=O)n(C)c(=S)n(C)c3=O)cc21 [Trifludimoxazin, trifludimoxazin]","Herbicidal activity against ECHCG, Found",[4]; Trifludimoxazin 0.25 g ai/ha,10
Dicamba dimethylammonium salt [Dicamba as dimethylammonium salt],"Herbicidal activity against SETVI, Found",SETVI (Setaria viridis); Dicamba as dimethylammonium salt 35 g ai/ha,0
same,"Herbicidal activity against SETVI, Found",SETVI (Setaria viridis); Dicamba as dimethylammonium salt 70 g ai/ha,0
same,"Herbicidal activity against SETVI, Found",SETVI (Setaria viridis); Dicamba as dimethylammonium salt 140 g ai/ha,30
bicyclopyrone,"Herbicidal activity against COMBE, Found",[2]; Bicyclopyrone 1 g ai/ha,0
same,"Herbicidal activity against COMBE, Found",[2]; Bicyclopyrone 2 g ai/ha,10
same,"Herbicidal activity against ECHCG, Found",[4]; Bicyclopyrone 1 g ai/ha,0
same,"Herbicidal activity against ECHCG, Found",[4]; Bicyclopyrone 2 g ai/ha,0
